Laboratory results reported in publication PMC10258243, “Identification and characterization of novel marine oxasqualenoid yucatecone against Naegleria fowleri” (International Journal for Parasitology: Drugs and Drug …, 2023).
Where two headings read alike, the source gives them in different places.

Key:
[1] = alamarBlue cytotoxicity assay; type: cell-based; conditions: mouse, J774A.1, 24 h, mean ± SD, read-out: Murine macrophages CC50
Protocol: (§1) The activity evaluation of the molecules was carried out in two different N. fowleri strains (ATCC® 30808™ and ATCC® 30215™) from the American Type Culture Collection (LG Promochem, Barcelona, Spain). The cytotoxicity of the compounds was evaluated using a murine macrophages cell line (ATCC® TIB-67). Cells were grown as previously described ([Rizo-Liendo et al., 2020]).
In order to evaluate the cytotoxicity of the compounds a murine macrophages cell line (ATCC® TIB-67) was used. A known concentration of cells (10^5 cells/mL) was incubated with serial dilutions of the molecules. After that, the alamarBlue® reagent was added and the plates were incubated for 24 h at 37 °C and in a 5% of CO2 atmosphere ([Arberas-Jiménez et al., 2020]). The same alamarBlue® based protocol described in the section above was assessed to obtain de cytotoxic concentration 50 (CC50).

N. fowleri ATCC® 30808™ = assay: alamarBlue colorimetric activity assay, trophozoites; type: cell-based, Naegleria fowleri; conditions: for IC50: Naegleria fowleri, read-out: N. fowleri ATCC® 30808™ IC50; for N. fowleri ATCC® 30808™ SI (CC50/IC50): selectivity index
Protocol: as §1
(§2) A colorimetric assay based on the alamarBlue® reagent was performed to evaluate the activity of the compounds in two different N. fowleri strains (ATCC® 30808™ and ATCC® 30215™). The same protocol optimized by Rizo-Liendo et al. was followed in these assays ([Rizo-Liendo et al., 2019]). Briefly, N. fowleri trophozoites (2 × 10^5 cells/mL) were incubated with serial dilutions (in the same culture media) of the compounds in a 96 well microtiter plate. Next, the alamarBlue® reagent was added and the plates were incubated at 37 °C. After 48 h, the fluorescence was read in an EnSpire Multimode Plate Reader (Perkin Elmer, Madrid, Spain) using a wavelength of excitation of 570 nm and a wavelength of emission of 585 nm.
(§3) All experiments were carried out in triplicate and mean values were also calculated.

N. fowleri ATCC® 30215™ = assay: as above; type: cell-based, Naegleria fowleri; conditions: for IC50: Naegleria fowleri, read-out: N. fowleri ATCC® 30215™ IC50; for N. fowleri ATCC® 30215™ SI (CC50/IC50): selectivity index
Protocol: as §1, §2, §3

[2] = tested on: N. fowleri ATCC® 30808™ trophozoites; assay: CellROX Deep Red intracellular ROS; type: cell-based, Naegleria fowleri; conditions: IC50 and IC90 of compound, 24 h
Protocol: (§4) The aim of these assays was to evaluate the presence of different metabolic events that are shown in programmed cell death like process (PCD-like) undergoing cells. […] After the treatment of the cells with these concentrations of the molecules, a 50% and a 10%, respectively, of the amoebae in the well remain as viable. Finally, the protocol for each kit was performed following manufacturers’ instructions. Moreover, the percentage of stained cells after the incubation of the treated and non-treated cells with each kit and the ratio of fluorescence between the aggregate and monomer forms of the JC-1 was evaluated. For this, the EVOS M5000 Cell Imaging System (Life Technologies, Madrid, Spain) was used and each experiment was performed in triplicate. In each experiment five different images were evaluated with a minimum number of cells of 80.
The CellROX Deep Red fluorescent assay (Invitrogen, Termo Fisher Scientifc, Madrid, Spain) was used to perform the ROS levels evaluation. After the cell incubation with the yucatecone the stain was added and incubated for half an hour in the dark. Finally, images were obtained with an EVOS M5000 Cell Imaging System (Life Technologies, Madrid, Spain). The presence of ROS is detected by intense red fluorescence.

N. fowleri trophozoites = assay: Celltiter-Glo ATP level measurement; type: cell-based, Naegleria fowleri
Protocol: as §4
The ATP level measurement was performed with the Celltiter-Glo® Luminescent Cell Viability Assay (Promega Biotech Ibérica, Madrid, Spain). […]

[3] = tested on: N. fowleri ATCC® 30808™ trophozoites; assay: Hoechst 33342/propidium iodide double stain for chromatin condensation; type: cell-based, Naegleria fowleri; conditions: IC50 and IC90 of compound, 24 h
Protocol: as §4
A double stain detection kit Hoechst 33342/propidium iodide (PI) (Life Technologies, Madrid, Spain) and an EVOS M5000 Cell Imaging System (Life Technologies, Madrid, Spain) were used in this experiment. The assay was performed following manufacturer's instruction.
This kit enables to distinguish between three different group of cells: A light blue fluorescence corresponds to live cells whereas in the treated cells an intense blue fluorescence is shown. Finally, red fluorescence appears in dead cells as the IP binds to their DNA.

[4] = tested on: N. fowleri ATCC® 30808™ trophozoites; assay: SYTOX Green plasmatic membrane permeability; type: cell-based, Naegleria fowleri; conditions: IC50 and IC90 of compound, 24 h
Protocol: as §4
The SYTOX Green kit (Life Technologies, Madrid, Spain) was used for the evaluation of the cellular plasmatic membrane damage. This stain binds to the DNA of those cells who have suffered alterations in the permeability of the plasmatic membrane and emits a high green fluorescence. […] This assay was performed following manufacturer's instruction and modified by [Sifaoui et al. (2018)]. An EVOS M5000 Cell Imaging System (Life Technologies, Madrid, Spain) was used to obtain the images.

[5] = tested on: N. fowleri ATCC® 30808™ trophozoites; assay: JC-1 mitochondrial membrane potential; type: cell-based, Naegleria fowleri; conditions: IC50 and IC90 of compound, 24 h
Protocol: as §4
The mitochondrial membrane potential decrease was determined using the JC-1 Mitochondrial Membrane Potential Assay Kit (Cayman Chemicals, Vitro SA, Madrid, Spain). The JC-1 dye presents potential-dependent accumulation in mitochondria. At high membrane potentials (healthy cells) JC-1 dye accumulates as “J-aggregates” in the mitochondria and emits red fluorescence whereas at low membrane potentials (cells undergoing PCD-like responses) the dye is presented in monomeric form in the cytoplasm, emitting green fluorescence. […]

[6] = tested on: Cysts of N. fowleri ATCC® 30808™; assay: alamarBlue activity assay against cysts; type: cell-based; conditions: Naegleria fowleri, ATCC30808, read-out: IC50 against N. fowleri cysts
Protocol: Cysts of N. fowleri ATCC® 30808™ strain were used in these assays. Cysts were obtained as previously described and performing the protocol optimized by our group ([Arberas-Jiménez et al., 2022]). Mature cysts (2 × 10^5 cells/mL) were incubated with serial dilutions of yucatecone during 24 h at 37 °C. Subsequently, the media was removed and fresh bactocasitone was added with the aim to facilitate the excystation. Finally, the alamarBlue® reagent was added and the plates were incubated for 72 more hours at 37 °C prior to reading the fluorescence and determining the IC50 as described in section 2.4.

[7] = ATCC30808, trophozoite stage, 48 h, mean ± SD, triplicate, N/A = no activity observed
[8] = ATCC30215, trophozoite stage, 48 h, mean ± SD, triplicate

IC50 (N. fowleri ATCC® 30808™; [7]) [µM] | IC50 (N. fowleri ATCC® 30215™; [8]) [µM] | SMILES | CC50 at 24 h [1] [µM] | N. fowleri ATCC® 30808™ SI (CC50/IC50) (N. fowleri ATCC® 30808™) | N. fowleri ATCC® 30215™ SI (CC50/IC50) (N. fowleri ATCC® 30215™) | CC50 at 24 h ([1]; J774A.1 murine macrophage cell line (ATCC TIB-67)) [µM] | intracellular ROS level (CellROX Deep Red) [2] | decrease of ATP production (N. fowleri trophozoites; treated with the IC50, compared to negative control) [%] | decrease of ATP production (N. fowleri trophozoites; treated with the IC90, compared to negative control) [%] | chromatin condensation (Hoechst 33342) [3] | propidium iodide staining [3] | plasma membrane permeability (SYTOX Green) [4] | IC50 (N. fowleri ATCC® 30808™; ATCC30808, 48 h) [µM] | N. fowleri ATCC® 30808™ SI (CC50/IC50) (N. fowleri ATCC® 30808™; listed as Yucatecone) | IC50 (N. fowleri ATCC® 30215™; ATCC30215, 48 h) [µM] | mitochondrial membrane potential (JC-1) [5] | IC50 [6] [µM]
0.12 ± 0.03 | 0.16 ± 0.02 | C[C@@H]1[C@H](O)[C@@H](C)/C=C/C=C/C=C/C=C/C=C/C=C/C=C/[C@H](O[C@@H]2O[C@H](C)[C@@H](O)[C@H](N)[C@@H]2O)C[C@@H]2O[C@](O)(C[C@@H](O)C[C@@H](O)[C@H](O)CC[C@@H](O)C[C@@H](O)CC(=O)O[C@H]1C)C[C@H](O)[C@H]2C(=O)O [Amphotericin B, reference compound] |  | >1652.89 | >1204.82 | > 200 |  |  |  |  |  |  |  |  |  |  | 
38.7 ± 4.23 | 81.6 ± 7.23 | CCCCCCCCCCCCCCCCOP(=O)([O-])OCC[N+](C)(C)C [Miltefosine, reference compound] |  | 3.30 | 1.57 |  |  |  |  |  |  |  |  |  |  |  | 
 |  | CC(CCC(=O)C1(C)CCC(C(C)(C)O)O1)C1CCC2OC(C3(C)CCC(Br)C(C)(C)O3)CCC2(C)O1 (stereo not shown) [Yucatecone (4), yucatecone] | > 85 | >2.98 | >5.23 |  | increased the intracellular ROS level production | 54.80 | 90.44 | induces chromatin condensation | no fluorescence is shown | caused plasma membrane permeabilty damage | 28.5 ± 5.04 | > 2.98 | 16.2 ± 1.23 | induces the depolarization of the mitochondrial membrane potential | 9.43 ± 1.48

SMILES | IC50 (N. fowleri ATCC® 30808™; [7]) [µM] | IC50 (N. fowleri ATCC® 30215™; [8]) [µM] | CC50 at 24 h [1] [µM] | N. fowleri ATCC® 30808™ SI (CC50/IC50) (N. fowleri ATCC® 30808™) | N. fowleri ATCC® 30215™ SI (CC50/IC50) (N. fowleri ATCC® 30215™) | CC50 at 24 h ([1]; J774A.1 murine macrophage cell line (ATCC TIB-67)) [µM] | intracellular ROS level (CellROX Deep Red) [2] | decrease of ATP production (N. fowleri trophozoites; treated with the IC50, compared to negative control) [%] | decrease of ATP production (N. fowleri trophozoites; treated with the IC90, compared to negative control) [%] | chromatin condensation (Hoechst 33342) [3] | propidium iodide staining [3] | plasma membrane permeability (SYTOX Green) [4] | IC50 (N. fowleri ATCC® 30808™; ATCC30808, 48 h) [µM] | N. fowleri ATCC® 30808™ SI (CC50/IC50) (N. fowleri ATCC® 30808™; listed as Yucatecone) | IC50 (N. fowleri ATCC® 30215™; ATCC30215, 48 h) [µM] | mitochondrial membrane potential (JC-1) [5] | IC50 [6] [µM]
C=C(CCC(=O)C1(C)CCC(C(C)(C)O)O1)C1CCC2OC(C3(C)CCC(Br)C(C)(C)O3)CCC2(C)O1 (stereo not shown) [18-KetoDT (6), 18-ketodehydrothyrsiferol] | 15.3 ± 2.82 | 12.7 ± 2.64 | 40 ± 1.06 | 2.61 | 3.17 |  |  |  |  |  |  |  |  |  |  |  | 
